One data set is described as follows: Solubility. In kind it is physicochemical.
The next data set can be described thus: Stability. The class given is physicochemical. The note with it: for Stability on exposure in the air (in words): exposed in the air.
Data set [1] deals with animal models, clinical trials, models of aging. The note with it: cited from earlier work.
For data set [2] the following is noted: in vivo; cited from earlier work.
The conditions of data set [3]: cited from earlier work.
Data set [4] has as its system locomotor activity of mice. Description: Locomotor activity (locomotor depression) study, Digiscan chambers. In kind it is in vivo, male Swiss-Webster mice (Hsd:ND4). As for the experimental part: A dose-response study of DHA-choline-induced locomotor depression was conducted using 40 Digiscan locomotor activity testing chambers (40.5×40.5×30.5 cm) housed in sets of two, within sound attenuating chambers. A panel of infrared beams (16 beams) and corresponding photo detectors were located in the horizontal direction along the sides of each activity chamber. A 7.5W incandescent light above each chamber provided dim illumination. Fans provided an 80-dB ambient noise level within the chamber. Separate groups of 8 non-habituated male Swiss-Webster mice (Hsd:ND4, aged 2-3 mo.) were injected via the intraperitoneal route (i.p.) with either vehicle or DHA-choline (0.5, 2.5, 5, 10, 20 or 40 mg/kg), 20 minutes prior to locomotor activity testing. In all studies, the total distance (cm traversed in the horizontal plane) was measured for 2 hours within 10 min periods.
The period 0-30 min was selected for analysis of dose-response data because this is the time period in which DHA-choline produced maximal effects. The mean average distance per 10 min for this 30 min period were fit to a linear function of log, dose of the descending portion of the dose-effect curve (0.5 to 40 mg/kg dose range).

Data set [5] has as its system MCA occlusions of rat brain. Description: Middle cerebral artery occlusion-reperfusion stroke model, infarct by triphenyltetrazolium chloride staining. The note with it: for Infarct volume (% of control non-occluded side of brain), Average: vehicle average 35.5. The class given is in vivo. The method, then:
Two sets of experiments were carried out. In the first set, rats were administered with 50 mg/kg of DHA-choline i.p. at 30 minutes prior to occlusion of the middle cerebral artery of the left side of the brain using a standard highly reproducible animal model of stroke (Karpiak et al., J. Neurosci. Res. 30:512-520, 1991). Occlusion of the middle cerebral artery inhibits blood flow to a major portion of the left cortical and subcortical regions of the brain. After a two hour period, the occluded blood vessel was opened to allow reperfusion of the brain, and anesthesia was terminated. Each animal received additional doses of 50 mg/kg of DHA-choline 24 and 48 hours later.
The animals were sacrificed, perfused with formalin fixative, brains were sliced into seven 2 mm thick coronal sections, and stained with triphenyltetrazolium chloride (Watson et al., J. Neurosci. Methods 53:203-208, 1994). In this test, tissue that contains intact mitochondria stains red, whereas dead tissue with damaged mitochondria picks up no stain and remains white. Each unstained area on the left side of a section was measured and compared to the total area of the control non-occluded right side of the same section of the brain. The area of damaged (white) brain tissue cells was calculated as a percent of the intact right side of a section. […] (n=5 per group.)
In the second set of experiments (n=5), the identical occlusion-reperfusionrat model was used; only the time of administration of the drug was changed. DHA-choline was injected i.p. at a dose of 50 mg/kg at one hour after the beginning of the reperfusion, i.e., at three hours after the initiation of the stroke event. Controls (n=5) received an injection of the vehicle instead of the drug according to the same protocol.

For data set [6] the following is noted: relative to tPA; cited from earlier work.
Where [7] appears, read: 50 mg/kg i.p. at 30 min prior to occlusion.

We go through seven compounds from patent US6153653A, “Choline compositions and uses thereof” (Protarga, Inc., priority 1997, dated 2000).

Values joined by “and” are separate entries in the source; they are usually repeats but may differ in a detail not shown here. Identical values can stand only once. “Also recorded” adds a separate entry of the source.

As for `CC/C=C\C/C=C\C/C=C\C/C=C\C/C=C\C/C=C\CCC(=O)OCCN(C)C` [2-dimethylaminoethyl docosahexaenoate], the “Solubility (solvents, in words)” value in the data set “Solubility” is “soluble in EtOAc, Et2 O, CH2 Cl2, CHCl3, EtOH insoluble in H2 O”. For the same compound, in the data set “Stability”, the “Stability on exposure in the air (in words)” value is “turns dark when exposed in the air for several days”.

Turning to `C[N+](C)(C)CCOP(=O)(O)OP(=O)([O-])OC[C@H]1O[C@@H](n2ccc(N)nc2=O)[C@H](O)[C@@H]1O` [CDP-choline, Cytidine 5'-diphosphocholine], the “neuroprotective effect; memory and learning deficits (in words)” value in data set [1] is “neuroprotective effect in animal models and in clinical trials; also recorded: improves memory and learning deficits in models of aging”. Besides, in data set [2], the “release on administration (in words)” value was “choline and cytidine are released into the systemic circulation”.

Take `CC/C=C\C/C=C\C/C=C\C/C=C\C/C=C\C/C=C\CCC(=O)O` [DHA, cis-docosahexaenoic acid]: in data set [3], the “Stability in the presence of oxygen (in words)” value is “can be unstable in the presence of oxygen”. Besides, the “crossing the blood-brain barrier (in words)” value in data set [2] is “unusually effective in crossing the blood-brain barrier”.

`CC/C=C\C/C=C\C/C=C\C/C=C\C/C=C\C/C=C\CCC(=O)OCC[N+](C)(C)C` [DHA-choline, docosahexaenoyl choline iodide]: in data set [4] (0-30 min, overall effect), the “one-way analysis of variance on total distance/10 min, F(6,49)” value is on record as 10.5. Moreover, in data set [4] (i.p., after 20 min pretreatment), the “time period in which maximal effects were produced” value was in the range of 0 to 30 min. Besides, the “decrease in number of dead cells” value in data set [5] (setting [7]) is “about 50%”. Besides, the “Infarct volume (% of control non-occluded side of brain), individual animals” value in data set [5] (50 mg/kg i.p. at 30 min prior to occlusion, Group No. 1 to 4) is 22 % of control non-occluded side of brain and 19 % of control non-occluded side of brain and 16 % of control non-occluded side of brain and 20 % of control non-occluded side of brain; in data set [5] (50 mg/kg i.p. at 3 hours after occlusion, Group No. 1 to 5) it was 15 % of control non-occluded side of brain and 17 % of control non-occluded side of brain and 25 % of control non-occluded side of brain and 21 % of control non-occluded side of brain and 20 % of control non-occluded side of brain. Further, the “Infarct volume (% of control non-occluded side of brain), Average” value in data set [5] (setting [7]) was 19.3 % of control non-occluded side of brain; in data set [5] (50 mg/kg i.p. at 3 hours after occlusion) it was 19.6 % of control non-occluded side of brain. Besides, the “decrease in infarct volume” value in data set [5] (50 mg/kg i.p. at three hours after initiation of stroke (one hour after beginning of reperfusion)) was “approximately 50%”. Further, the “Solubility (solvents, in words)” value in “Solubility” is reported as “soluble in CH2 Cl2, CHCl3, EtOAc, EtOH insoluble in hexanes, Et2 O”. Moreover, the “Stability on exposure in the air (in words)” value in the data set “Stability” is “exposed in the air for 5 days showed that the compound had not decomposed; also recorded: if it is exposed in the air for too long will decompose”. Further, in “Stability” (purification on neutral alumina, 1H NMR), the “Stability on neutral alumina (in words)” value is “will result in other peaks on ^1 H NMR”.

For `C[N+](C)(C)CCO` [choline], the “crossing the blood-brain barrier (in words)” value in data set [2] was “cross the blood-brain barrier”.

On to `Nc1ccn([C@@H]2O[C@H](CO)[C@@H](O)[C@H]2O)c(=O)n1` [cytidine], for which, in data set [2], the “crossing the blood-brain barrier (in words)” value was “cross the blood-brain barrier”.

As for “tPA conjugated to polyethylene glycol: conjugation of tPA to polyethylene glycol (EP-A304,311)”, in data set [6], the “clearance rate (in words)” value is “reduce the clearance rate of tPA”.
